The values below come from patent US20040224981A1, “Antibacterial methods and compositions” (priority 2003, published 2004).

A word on the MIC: it is the smallest concentration in the dilution series that meets the test's criterion for growth inhibition. A word on the MIC50: it is the lowest concentration that inhibits either 50% of growth or 50% of the strains tested, depending on the study.

Like-named read-outs stand apart in the source and are kept apart here.

Test [1] relates to E. faecalis. Description: MIC against E. faecalis. The test is classed as cell-based. The method, then: The MRS inhibitor 4 alone and in combination with mupirocin (mupirocin salt and 1:1 combination) were tested against a collection of Gram-positive pathogens.
MRSi compound 5 alone and in combination with mupirocin was tested recent clinical isolates of E. faecalis (n=28) and E. faecium (n=23). Both the acetate salt and mupirocinate salts of MRSi compound 5 maintained potent activity against vancomycin-susceptible and—resistant enterococci (Tables 8, 9, and 10).

Test [2] relates to S. aureus. In words: MIC against S. aureus strains and clinical isolates (broth microdilution). The test is classed as cell-based, Staphylococcus aureus. The method, then: were tested against a collection of clinical isolates of S. aureus including strains that were multi-resistant to mupirocin and to other agents such as gentamicin and oxacillin.
The acetate and mupirocin salts of the MRS inhibitor compound 5 were tested against a collection of both low and high-level mupirocin resistant clinical isolates of S. aureus (Table 6).
The bacterial strains were tested for susceptibility to mupirocin and MRSi compound 2 using the broth microdilution method in accordance with NCCLS guideline to determine their MICs.
Briefly, the MIC and checkerboard titration assays were performed with strains in microtiter trays with cation-supplemented Mueller-Hinton broth (Difco). Inocula were prepared by suspending growth from blood agar plates in sterile saline to a density equivalent to that of a 0.5 McFarland standard and were diluted […] to produce a final inoculum of 5×10^5 CFU/ml. The trays were incubated aerobically overnight. Standard quality control strains were included with each run. Fractional inhibitory concentrations (FICs) were calculated as the MIC of drug A or B in combination/MIC of drug A or B alone, and the FIC index was obtained by adding the two FICs. FIC indices were interpreted as synergistic if the values were ≦0.5, additive or indifferent if the values were >0.5 to 4, and antagonistic if the values were >4.0.
For orientation: In broth dilution the organism is exposed to a series of concentrations in liquid medium.

Setting [3] is: recent clinical isolates of E. faecalis, ALL (28).
[4] abbreviates: all S. aureus isolates of Table 6.

Turning to `C=C(F)c1sc(CNCCCNc2cc(=O)c3ccccc3[nH]2)c(C)c1Br` [MRSi Cmpd 5 mupirocinate, N-(4-bromo-5-(1-fluorovinyl)-3-methylthiophen-2-ylmethyl)-N′(1H-quinolin-4-one)propane-1,3-diamine Mupirocinate], the MIC90 in test [1] (E. faecalis, Van-R(11)) turned out to be 0.03 µg/mL; in test [1] (E. faecalis, Van-S (16)) it was 0.03 µg/mL; in test [1] (setting [3]), 0.03 µg/mL. Further, in test [1] (setting [3]), the Mode (MIC) was determined as 0.03 µg/mL.
As to `Cc1onc(-c2ccccc2)c1C(=O)N[C@@H]1C(=O)N2[C@@H]1SC(C)(C)[C@@H]2C(=O)O` [Oxacillin], the MIC was 4 µg/mL in test [2] (Staphylococcus aureus, ATCC43300, S. aureus ATCC 43300 (ORSA), read-out: MIC); more than 64 µg/mL in test [2] (Staphylococcus aureus, NRS 1 / VISA, S. aureus NRS1 (VISA), read-out: MIC); more than 64 µg/mL in test [2] (Staphylococcus aureus, NRS 1 / VISA, VISA, S. aureus NRS1 (Mu50), read-out: MIC); more than 64 µg/mL in test [2] (Staphylococcus aureus, NRS 3 / VISA, VISA, S. aureus NRS3 (HIP5827), read-out: MIC); 64 µg/mL in test [2] (Staphylococcus aureus, NRS 4 / VISA, VISA, S. aureus NRS4 (HIP5836), read-out: MIC); 2 µg/mL in test [2] (Staphylococcus aureus, NRS 18 / VISA, VISA, S. aureus NRS18 (HIP06854), read-out: MIC). In addition, the minimum inhibitory concentration (MIC) in test [2] (Staphylococcus aureus, NRS 24 / VISA, VISA, S. aureus NRS24 (HIP09143), read-out: MIC) is 32 µg/mL; in test [2] (Staphylococcus aureus, NRS 49 / VISA, VISA, S. aureus NRS49 (Korea), read-out: MIC) it was more than 64 µg/mL; in test [2] (Staphylococcus aureus, NRS54, Table 6, high-level mupirocin-resistant S. aureus NRS54, read-out: MIC), more than 64 µg/mL; in test [2] (Staphylococcus aureus, NRS 54 / VISA, VISA, S. aureus NRS54 (Brazil), read-out: MIC), more than 64 µg/mL; in test [2] (Staphylococcus aureus, NRS 56 / VISA, VISA, S. aureus NRS56 (Brazil), read-out: MIC), more than 64 µg/mL; in test [2] (Staphylococcus aureus, NRS107, S. aureus NRS107 (HL Mup rest.), read-out: MIC), 0.12 µg/mL. The MIC in test [2] (Staphylococcus aureus, NRS107, Table 6, high-level mupirocin-resistant S. aureus NRS107, read-out: MIC) was 0.12 µg/mL; in test [2] (Staphylococcus aureus, NRS127, Table 6, low-level mupirocin-resistant S. aureus NRS127, read-out: MIC) it was 64 µg/mL; in test [2] (Staphylococcus aureus, S. aureus 10-420 (LL Mup. Rest.), read-out: MIC), 16 µg/mL; in test [2] (Staphylococcus aureus, S. aureus 14-354 (LL Mup. Rest.), read-out: MIC), more than 64 µg/mL; in test [2] (Staphylococcus aureus, S. aureus 25-670 (HL Mup. Rest.), read-out: MIC) it was more than 64 µg/mL; in test [2] (Staphylococcus aureus, S. aureus 31-1334 (LL Mup Rest.), read-out: MIC), more than 64 µg/mL. For the same compound, the MIC was 0.25 µg/mL in test [2] (Staphylococcus aureus, S. aureus 36-1298 (LL Mup. Rest.), read-out: MIC); more than 64 µg/mL in test [2] (Staphylococcus aureus, S. aureus 87-2797 (HL Mup. Rest.), read-out: MIC); more than 64 µg/mL in test [2] (Staphylococcus aureus, S. aureus 87-2797 (Mup. Susc.), read-out: MIC); 16 µg/mL in test [2] (Staphylococcus aureus, S. aureus 101-100 (Mup. Susc.), read-out: MIC); more than 64 µg/mL in test [2] (Staphylococcus aureus, S. aureus LZ1 (HL Mup rest.), read-out: MIC); more than 64 µg/mL in test [2] (Staphylococcus aureus, S. aureus LZ6 (HL Mup rest.), read-out: MIC). Further, the MIC was more than 64 µg/mL in test [2] (Staphylococcus aureus, S. aureus LZ8 (LL Mup. Rest.), read-out: MIC); more than 64 µg/mL in test [2] (Staphylococcus aureus, S. aureus LZ9, read-out: MIC); more than 64 µg/mL in test [2] (Staphylococcus aureus, S. aureus LZ10, read-out: MIC); 0.25 µg/mL in test [2] (Staphylococcus aureus, S. aureus Miles Hall, read-out: MIC); 0.015 µg/mL in test [2] (Staphylococcus aureus, S. aureus Oxford, read-out: MIC); 8 µg/mL in test [2] (Staphylococcus aureus, Table 6, S. aureus (mupirocin-susceptible) 010-100, read-out: MIC). The MIC in test [2] (Staphylococcus aureus, Table 6, S. aureus (mupirocin-susceptible) 087-2789, read-out: MIC) was more than 64 µg/mL; in test [2] (Staphylococcus aureus, Table 6, S. aureus (mupirocin-susceptible) LZ9, read-out: MIC) it was more than 64 µg/mL; in test [2] (Staphylococcus aureus, Table 6, S. aureus (mupirocin-susceptible) LZ10, read-out: MIC), more than 64 µg/mL; in test [2] (Staphylococcus aureus, Table 6, high-level mupirocin-resistant S. aureus 010-420, read-out: MIC) it was 8 µg/mL; in test [2] (Staphylococcus aureus, Table 6, high-level mupirocin-resistant S. aureus 25-670, read-out: MIC) it was more than 64 µg/mL; in test [2] (Staphylococcus aureus, Table 6, high-level mupirocin-resistant S. aureus 87-2797, read-out: MIC), more than 64 µg/mL. The MIC is 0.25 µg/mL in test [2] (Staphylococcus aureus, Table 6, high-level mupirocin-resistant S. aureus 1079101, read-out: MIC); more than 64 µg/mL in test [2] (Staphylococcus aureus, Table 6, high-level mupirocin-resistant S. aureus LZ1, read-out: MIC); more than 64 µg/mL in test [2] (Staphylococcus aureus, Table 6, high-level mupirocin-resistant S. aureus LZ6, read-out: MIC); more than 64 µg/mL in test [2] (Staphylococcus aureus, Table 6, low-level mupirocin-resistant S. aureus 014-354, read-out: MIC); 64 µg/mL in test [2] (Staphylococcus aureus, Table 6, low-level mupirocin-resistant S. aureus 031-1334, read-out: MIC); 8 µg/mL in test [2] (Staphylococcus aureus, Table 6, low-level mupirocin-resistant S. aureus 036-1298, read-out: MIC). Moreover, the MIC in test [2] (Staphylococcus aureus, Table 6, low-level mupirocin-resistant S. aureus 1081148, read-out: MIC) is 8 µg/mL; in test [2] (Staphylococcus aureus, Table 6, low-level mupirocin-resistant S. aureus LZ8, read-out: MIC), more than 64 µg/mL; in test [2] (Staphylococcus aureus, Table 6, low-level mupirocin-resistant S. aureus Miles Hall, read-out: MIC) it was 0.12 µg/mL. Moreover, the MIC50 in test [2] (Staphylococcus aureus, all S. aureus isolates of Table 6, read-out: MIC50) is more than 64 µg/mL. The MIC90 in test [2] (Staphylococcus aureus, all S. aureus isolates of Table 6, read-out: MIC90) was more than 64 µg/mL; in test [2] (Staphylococcus aureus, all S. aureus strains of Table 1, read-out: MIC 90), more than 64 µg/mL.
As for “N-(4-bromo-5-(1-fluorovinyl)-3-methylthiophen-2-ylmethyl)-N′(1H-quinolin-4-one)propane-1,3-diamine Mupirocinate [MRSi Cmpd 5 mupirocinate]”, in test [2] (setting [4]), the MIC50 turned out to be 0.12 µg/mL and the MIC90 was determined as 1 µg/mL.
Gentamicin: the MIC in test [2] (S. aureus 10-420 (LL Mup. Rest.)) was 64 µg/mL; in test [2] (S. aureus 14-354 (LL Mup. Rest.)), more than 64 µg/mL; in test [2] (S. aureus 25-670 (HL Mup. Rest.)), more than 64 µg/mL; in test [2] (S. aureus 31-1334 (LL Mup Rest.)), 64 µg/mL; in test [2] (S. aureus 36-1298 (LL Mup. Rest.)) it was 0.5 µg/mL; in test [2] (S. aureus 87-2797 (HL Mup. Rest.)), 0.25 µg/mL. For the same compound, the MIC was 0.25 µg/mL in test [2] (S. aureus 87-2797 (Mup. Susc.)); 0.12 µg/mL in test [2] (S. aureus 101-100 (Mup. Susc.)); 4 µg/mL in test [2] (S. aureus ATCC 43300 (ORSA)); 0.5 µg/mL in test [2] (S. aureus LZ1 (HL Mup rest.)); 0.25 µg/mL in test [2] (S. aureus LZ6 (HL Mup rest.)); 64 µg/mL in test [2] (S. aureus LZ8 (LL Mup. Rest.)). The minimum inhibitory concentration (MIC) in test [2] (S. aureus LZ9) is 64 µg/mL; in test [2] (S. aureus LZ10) it was 64 µg/mL; in test [2] (S. aureus Miles Hall), 0.5 µg/mL; in test [2] (S. aureus NRS1 (VISA)), more than 64 µg/mL; in test [2] (S. aureus NRS107 (HL Mup rest.)), 0.25 µg/mL; in test [2] (S. aureus Oxford), 0.5 µg/mL. The “MIC90” value in test [2] (all S. aureus strains of Table 1) is more than 64 µg/mL.
